Laboratory results as given in publication PMC9725750, “The clinical pharmacology of tafenoquine in the radical cure of Plasmodium vivax malaria: An individual patient data meta-analysis” (eLife, 2022).
Like-named read-outs stand apart in the source and are kept apart here.

What was measured:
Type in all cases: in vivo, human
[1] = test system: blood MetHb; assay: Blood methaemoglobin (MetHb) concentration on day 7 by pulse CO-oximeter
Source text: All patients in the phase 1 trial and the three efficacy trials had frequent blood MetHb measurements taken using non-invasive signal extraction pulse CO-oximeter handheld machines. For the three efficacy trials, we excluded measurements taken at or after recurrence of vivax malaria. Because erroneous readings from the handheld oximeters can occur, we inspected visually the longitudinal MetHb curves for each patient. […] All patients from this site were excluded from the MetHb analysis ( n =91), resulting in a total of 9632 MetHb measurements across 746 P. vivax infected patients and 72 healthy volunteers.

[2] = Population pharmacokinetic modelling of plasma tafenoquine (patients and healthy volunteers); conditions: for Patient – MTT covariate / Patient – Vc/F covariate / Patient – Vp/F covariate: Malaria patients: 1 + Θ; for Vomit – F covariate: Vomiting: 1 + Θ; for Age – CL/F covariate: linear, 1 + Θ × (Age-35); for Vd/F: human, plasma, oral, read-out: Vc/F, apparent central volume of distribution; for IIV CL/F, inter-individual variability / IIV F, inter-individual variability / IIV MTT, inter-individual variability / IIV Q/F, inter-individual variability / IIV Vp/F, inter-individual variability / RUV, additive residual error: variance estimate
Source text: Tafenoquine pharmacokinetics have been described in detail previously ([Thakkar et al., 2018]). Tafenoquine is a slowly eliminated 8-aminoquinoline antimalarial drug with a terminal elimination half-life of around 15 days. The metabolites have not been well characterised. Tafenoquine pharmacokinetics have been characterised previously by a two-compartment pharmacokinetic (PK) model (i.e. bi-exponential decay model) with allometric scaling of clearance and volume parameters ([Thakkar et al., 2018]). We inspected visually all individual drug level profiles and excluded 10 concentrations from 8 patients which were substantial outliers. A total of 15 malaria patients vomited within one hour of drug administration. […] One patient was not re-dosed and had very low tafenoquine levels during follow-up. We removed this patient from all analyses as it is difficult to estimate the amount of drug ingested. For the remaining 14 patients who vomited and were re-dosed, time since dose was calculated as the time since the second dose (in some patients this was the next day). All available tafenoquine concentration measurements were transformed into their natural logarithms and characterised using nonlinear mixed-effects modelling in the software NONMEM v7.4 (Icon Development Solution, Ellicott City, MD). […] One-, two-, and three-compartment dispositional models were evaluated, as well as different absorption models (i.e. first-order absorption and a fixed number of transit absorption compartments). Inter-individual variability was implemented as an exponential function of all structural PK parameters. The first-order conditional estimation method with interactions (FOCE-I) and subroutine ADVAN5 TRANS1 were used throughout the study. Body weight was implemented as a fixed allometric function on clearance parameters (exponent of 0.75) and as a linear function on volume parameters (exponent of 1.0). Additional, biologically relevant, covariates (i.e. age, sex, vomiting, tafenoquine formulation and patient vs healthy volunteers) were evaluated on all PK parameters using a linearized stepwise addition (p<0.01) and backward elimination (p<0.001) covariate approach.
Potential model mis-specification and systematic errors were evaluated by basic goodness-of-fit diagnostics. Model robustness and parameter confidence intervals were evaluated by a sampling-important-resampling (SIR) procedure ([Dosne et al., 2017]). Predictive performance of the final model was illustrated by prediction-corrected visual predictive checks (n=2,000) ([Bergstrand et al., 2011]). The 5th, 50th, and 95th percentiles of the observed concentrations were overlaid with the 95% confidence intervals of each simulated percentile to detect model bias. Under the population mixed-effects model we estimated for each healthy volunteer and each patient in the three efficacy studies: (i) the area under the plasma concentration time curve ( AUC[0,∞ ); (ii) the maximum peak concentration ( Cmax ); and (iii) the terminal elimination half-life (t1/2). […] Details of the final model are given in Appendix 6.
For the terminal elimination half-life, multiple patients had estimated values greater than 30 days. On examination, the NONMEM model estimates of the terminal elimination half-life were not robust with respect to the model structure. In order to derive robust half-life estimates, we fit a robust (using a student- t likelihood, [Lange et al., 1989]) Bayesian hierarchical linear model to the observed log-concentrations post day 4 (terminal phase; random intercept and slope). […] The half-life is then defined as -log(2)/βi where βi is the individual slope estimate for patient i . Values below the lower limit of quantification were treated as left-censored observations with censoring value equal to log(2 ng/ml). The model included an interaction term between time and the log patient weight (clearance was associated with weight); and a dose (mg/kg) dependent intercept term. […]

[3] = test system: CYP2D6; assay: CYP2D6 activity score (poor vs normal/extensive metabolisers): association with recurrence and half-life
Source text: CYP2D6 genotyping data were available for patients enrolled in DETECTIVE part 2 and GATHER. We mapped CYP2D6 diplotypes to an activity score using the standard scoring system ([Caudle et al., 2020]) (note that under the updated scoring system the *10 allele has a score of 0.25 instead of 0.5). The activity score cannot be used as a linear predictor (e.g. a score of 1 cannot be interpreted as twice the metabolic activity of a score of 0.5). For this reason, to assess association with recurrence, we dichotomised the activity scores into poor metabolisers (≤0.5) versus normal/extensive metabolisers (>0.5) ([Caudle et al., 2020]).

[4] = population estimate (%RSE), typical healthy individual 70 kg, 35 years

## COc1cc(C)c2c(Oc3cccc(C(F)(F)F)c3)c(OC)cc(NC(C)CCCN)c2n1 (centres unmarked) [tafenoquine]
[1]; 95% CI 17% to 21%
  increase in day 7 MetHb concentrations per additional mg/kg: 19%
[1]; adjusted for mg/kg dose, 95% CI 0 to 34%, p=0.02
  lower day 7 methaemoglobinaemia in healthy volunteers compared to patients infected with P. vivax: 15%
[1]; after single dose tafenoquine + chloroquine
  day of peak MetHb levels: ~7 days
[2]; SIR median (95% CI)
  CL/F, oral elimination clearance: 3.14 (2.71–3.70) L/h
  MTT, mean absorption transit time over 6 transit compartments: 3.05 (2.30–3.87) h
  Vp/F, apparent peripheral volume of distribution: 318 (248–424) L
  Patient – MTT covariate: 0.929 (0.605–1.51)
  Patient – Vc/F covariate: –0.282 (-0.0784–-0.395)
  Patient – Vp/F covariate: 1.30 (0.670–1.88)
  Vomit – F covariate: 0.434 (0.315–0.608)
  Age – CL/F covariate: –0.00435 (-0.00206–-0.00589)
  Vd/F: 1360 L
  IIV CL/F, inter-individual variability: 0.0349 (0.0193–0.0451)
  IIV F, inter-individual variability: 0.0870 (0.0559–0.120)
  IIV MTT, inter-individual variability: 0.0887 (0.0585–0.124)
  IIV Q/F, inter-individual variability: 0.156 (0.1000–0.226)
  IIV Vp/F, inter-individual variability: 0.0265 (0.0153–0.0400)
  RUV, additive residual error: 0.0240 (0.0170–0.0333)
[2]; covariate Age – CL/F, final model
  decrease in CL/F per 10 years of age increase from the median age of 35 years: 4.34%
[2]; covariate Patient – Vc/F
  lower central volume of distribution in patients compared to healthy volunteers: 27.6%
[2]; covariate Vomit – F, relative oral bioavailability
  higher total dose when 1st dose was vomited and re-administered: 44.7%
[2]; [4]
  Vd/F: 1330 L
  CL/F, oral elimination clearance: 3.14 (8.43) L/h
  MTT, mean absorption transit time over 6 transit compartments: 3.14 (12.8) h
  Vp/F, apparent peripheral volume of distribution: 311 (14.4) L
[2]; population estimate (%RSE)
  Patient – MTT covariate: 0.937 (24.7)
  Patient – Vc/F covariate: –0.276 (29.4)
  Patient – Vp/F covariate: 1.40 (21.6)
  Vomit – F covariate: 0.447 (16.3)
  Age – CL/F covariate: –0.00434 (23.4)
  IIV CL/F, inter-individual variability: 0.0338 (18.8)
  IIV F, inter-individual variability: 0.0850 (19.2)
  IIV MTT, inter-individual variability: 0.0831 (21.0)
  IIV Q/F, inter-individual variability: 0.151 (20.5)
  IIV Vp/F, inter-individual variability: 0.0256 (25.3)
  RUV, additive residual error: 0.0225 (18.8)
[3]; CYP2D6 activity score ≤0.5 vs >0.5, 95% CI 0.4 to 2.2
  OR for recurrence at 4 months, poor versus normal/extensive metabolisers: 0.9
[3]; activity score ≤0.5, n=35 vs n=356, 95% CI –1.22 to 0.94
  change in tafenoquine elimination half-life in poor versus normal/extensive metabolisers: –0.15 days
